Results: US20220380347A1, “INHIBITORS OF CYSTEINE PROTEASES AND METHODS OF USE THEREOF” (Pardes Biosciences, Inc., priority 2020, published 2022)
Where two headings read alike, the source gives them in different places.

Columns and labels:
HCov OC43 = assay: HCoV OC43 cytopathic effect (CPE) assay, CellTiter Glo; format: cell-based, human coronavirus (HCov) OC43
229E Mpro = 229E Mpro (Human coronavirus 229E, UniProt P0C6X1); assay: 229E Mpro enzymatic assay (standard methods, SARS-CoV2 Mpro assay given as exemplary); format: biochemical, human coronavirus (HCov) 229E
229E Mpro, sequence (P0C6X1 2966-3267): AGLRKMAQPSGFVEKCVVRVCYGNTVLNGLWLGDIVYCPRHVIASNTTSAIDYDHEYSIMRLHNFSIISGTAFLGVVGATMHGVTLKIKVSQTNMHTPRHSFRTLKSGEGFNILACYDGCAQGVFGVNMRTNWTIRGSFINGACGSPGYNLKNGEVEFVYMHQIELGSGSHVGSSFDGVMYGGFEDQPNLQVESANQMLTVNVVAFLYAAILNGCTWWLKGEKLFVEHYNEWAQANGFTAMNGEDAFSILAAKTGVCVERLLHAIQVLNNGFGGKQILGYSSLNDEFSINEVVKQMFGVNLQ
Procedure, shortened: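 Run by standard methods, with the SARS-CoV-2 Mpro protocol given as the model: E. coli-expressed C-His6 protease at 25 nM and substrate at 25 μM (Km 13.5 μM). Buffer pH 7.3 with 5 mM TCEP and 0.1% BSA; % inhibition versus controls fitted to variable-slope log(inhibitor)-response for IC50.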

[1] = target: COVID-19 (nCoV-2019, SARS-CoV2) Mpro (Severe acute respiratory syndrome coronavirus 2, UniProt P0DTD1); assay: COVID-19 (nCoV-2019, SARS-CoV2) Mpro enzymatic assay; format: biochemical; conditions: 25 nM Mpro, 25 μM substrate; read-out: COVID-19 Mpro IC50
[2] = Betacoronavirus 1, OC43, read-out: OC43 IC50 (uM) MEDIAN, median
[3] = read-out: OC43 IC50 (uM) MEDIAN, median

| SMILES | IC50 (HCov OC43; read-out: OC43 IC50 (uM) MEDIAN, median, listed as 1161 Isomer 2) [µM] | EC50 (229E Mpro; 229E Mpro EC50) [nM] | IC50 [1] [nM] | IC50 (HCov OC43; [2]) [µM] | IC50 (HCov OC43; [3]) [µM] | EC50 (229E Mpro; read-out: 229E Mpro EC50) [nM] | IC50 (HCov OC43; read-out: OC43 IC50 (uM) MEDIAN, median, listed as 959 Isomer 2) [µM] |
| --- | --- | --- | --- | --- | --- | --- | --- |
| CN1CC(C(=O)N(c2ccc(S(F)(F)(F)(F)F)cc2)C(C(=O)NC2CCC(F)(F)CC2)c2cncc(F)c2)N(C#N)CC1=O (single isomer, unassigned) [Compound 1161 Isomer 2, 1-cyano-N-[2-[(4,4-difluorocyclohexyl)amino]-1-(5-fluoro-3-pyridyl)-2-oxo-ethyl]-4-methyl-5-oxo-N-[4-(pentafluoro-λ6-sulfanyl)phenyl]piperazine-2-carboxamide] | 2 to 10 | 2000 to 10000 | 2000 to 10000 | – | – | – | – |
| CN(C)CCCNC(=O)C(c1cccnc1)N(C(=O)[C@H]1CCCN1C#N)c1ccc(C(C)(C)C)cc1 (stereo partly drawn) [Compound 455] | – | < 2000 | 2000 to 10000 | 10 to 30 | – | – | – |
| CN1C[C@H](C(=O)N(c2ccc(S(F)(F)(F)(F)F)cc2)C(C(=O)NC2CCOCC2)c2cccnc2)N(C#N)CC1=O (stereo partly drawn) [Compound 813] | – | < 2000 | < 2000 | < 2 | – | – | – |
| N#CN1CC(=O)NCC1C(=O)N(c1ccc(S(F)(F)(F)(F)F)cc1)C(C(=O)NC1CCC(F)(F)CC1)c1cncc(F)c1 (single isomer, unassigned) [Compound 1160 Isomer 1, 1-cyano-N-[2-[(4,4-difluorocyclohexyl)amino]-1-(5-fluoro-3-pyridyl)-2-oxo-ethyl]-5-oxo-N-[4-(pentafluoro-λ6-sulfanyl)phenyl]piperazine-2-carboxamide] | – | < 2000 | < 2000 | < 2 | – | – | – |
| CC(C)(C)c1ccc(N(C(=O)[C@H]2[C@H](F)CCN2C#N)C(C(=O)NC2CCC(F)(F)CC2)c2cncc(F)c2)cc1 (single isomer, unassigned) [1212 Isomer 1] | – | < 2000 | < 2000 | < 2 | – | – | – |
| CO[C@@H]1C[C@H](C(=O)N(c2ccc(S(F)(F)(F)(F)F)cc2)C(C(=O)NCCc2cc(F)cc(F)c2)c2cccnc2)N(C#N)C1 (single isomer, unassigned) [1196 Isomer 1] | – | < 2000 | 2000 to 10000 | 2 to 10 | – | – | – |
| CC1(C)CCN(C#N)[C@H]1C(=O)N(c1ccc(S(F)(F)(F)(F)F)cc1)C(C(=O)NC1CCC(F)(F)CC1)c1cncc(F)c1 (single isomer, unassigned) [1094 Isomer 1] | – | < 2000 | < 2000 | – | < 2 | – | – |
| CC(C)(C)c1ccc(N(C(=O)[C@H]2CCCN2C#N)C(C(=O)NCc2ccncc2)c2cccnc2)cc1 (single isomer, unassigned) [Compound 439 Isomer 1] | – | < 2000 | 2000 to 10000 | 10 to 30 | – | – | – |
| CC(C)(C)c1ccc(N(C(=O)[C@H]2C[C@@H](O)CN2C#N)C(C(=O)NC2CCCC2)c2cccnc2)cc1 (single isomer, unassigned) [595 Isomer 2] | – | – | < 2000 | – | < 2 | < 2000 | – |
| O=C(NC1CCC(F)(F)CC1)C(c1cncc(F)c1)N(C(=O)C1CCC1(O)O)c1ccc(S(F)(F)(F)(F)F)cc1 (stereo not drawn) [Compound 1133a, N-[2-[(4,4-difluorocyclohexyl)amino]-1-(5-fluoro-3-pyridyl)-2-oxo-ethyl]-2,2-dihydroxy-N-[4-(pentafluoro-λ6-sulfanyl)phenyl]cyclobutanecarboxamide] | – | > 30000 | > 30000 | > 30 | – | – | – |
| CO[C@@H]1C[C@H](C(=O)N(c2ccc(S(F)(F)(F)(F)F)cc2)C(C(=O)N(C)CC(=O)NC2CC2)c2cccnc2)N(C#N)C1 (single isomer, unassigned) [1122 Isomer 1] | – | – | < 2000 | – | < 2 | < 2000 | – |
| C[C@H](NC(=O)C(c1cccnc1)N(C(=O)c1ccco1)c1ccc(-c2ccccc2)cc1)c1ccccc1 (single isomer, unassigned) [1353 Isomer 1] | – | < 2000 | < 2000 | > 30 | – | – | – |
| CO[C@@H]1C[C@H](C(=O)N(c2ccc(C(C)(C)C)cc2F)C(C(=O)NC2CCC(F)(F)CC2)c2cncc(F)c2)N(C#N)C1 (single isomer, unassigned) [1207 Isomer 2] | – | > 30000 | > 30000 | – | > 30 | – | – |
| CC(C)(C)c1ccc(N(C(=O)[C@H]2C[C@@H](O)CN2C#N)C(C(=O)NCc2cccnc2)c2cccnc2)cc1 (single isomer, unassigned) [643 Isomer 2] | – | – | 2000 to 10000 | – | 2 to 10 | < 2000 | – |
| N#CN1C[C@H](O)C[C@@H]1C(=O)N(c1ccc(C2(C(F)(F)F)CC2)cc1)C(C(=O)NC1CCCCC1)c1cccnc1 (single isomer, unassigned) [735 Isomer 1] | – | < 2000 | < 2000 | < 2 | – | – | – |
| CO[C@@H]1C[C@H](C(=O)N(c2ccc(S(F)(F)(F)(F)F)cc2)C(C(=O)NC2CC3CCC(C2)O3)c2cccnc2)N(C#N)C1 (single isomer, unassigned) [1187 Isomer 1] | – | < 2000 | < 2000 | < 2 | – | – | – |

| SMILES | IC50 (HCov OC43; read-out: OC43 IC50 (uM) MEDIAN, median, listed as 1161 Isomer 2) [µM] | EC50 (229E Mpro; 229E Mpro EC50) [nM] | IC50 [1] [nM] | IC50 (HCov OC43; [2]) [µM] | IC50 (HCov OC43; [3]) [µM] | EC50 (229E Mpro; read-out: 229E Mpro EC50) [nM] | IC50 (HCov OC43; read-out: OC43 IC50 (uM) MEDIAN, median, listed as 959 Isomer 2) [µM] |
| --- | --- | --- | --- | --- | --- | --- | --- |
| C[C@H](NC(=O)C(c1cncc(F)c1)N(C(=O)[C@H]1C[C@@](C)(O)CN1C#N)c1ccc(-c2ccccc2)cc1)c1ccccc1 (single isomer, unassigned) [1345 Isomer 1] | – | < 2000 | < 2000 | – | < 2 | – | – |
| CC(C)(C)c1ccc(N(C(=O)[C@H]2C[C@@H](O)CN2C#N)C(C(=O)NC2CCCCC2)c2cncc(Cl)c2)cc1 (single isomer, unassigned) [675 Isomer 1] | – | < 2000 | < 2000 | < 2 | – | – | – |
| CC(C)(C)c1ccc(N(C(=O)C2NCC[C@H]2F)C(C(=O)NC2CCCCC2)c2cccnc2)cc1 (stereo partly drawn) [Compound 853] | – | 2000 to 10000 | 2000 to 10000 | 2 to 10 | – | – | – |
| CO[C@@H]1C[C@H](C(=O)N(c2ccc(C(C)(C)C)cc2)C(C)(C(=O)NC2CCC(F)(F)CC2)c2cccnc2)N(C#N)C1 (single isomer, unassigned) [1232 Isomer 1] | – | 2000 to 10000 | 2000 to 10000 | 2 to 10 | – | – | – |
| N#CN1C[C@H](O)C[C@@H]1C(=O)N(c1ccc(C2(C(F)(F)F)CC2)cc1)C(C(=O)NC1CCC(F)(F)CC1)c1cncc(F)c1 (single isomer, unassigned) [Compound 815a Isomer 2] | – | – | < 2000 | – | < 2 | < 2000 | – |
| C[C@@]1(O)C[C@H](C(=O)N(c2ccc(S(F)(F)(F)(F)F)cc2)C(C(=O)NC2CCC(F)(F)CC2)c2cccnc2F)N(C#N)C1 (stereo partly drawn) [Compound 1158, (2R,4R)-1-cyano-N-[2-[(4,4-difluorocyclohexyl)amino]-1-(2-fluoro-3-pyridyl)-2-oxo-ethyl]-4-hydroxy-4-methyl-N-[4-(pentafluoro-λ6-sulfanyl)phenyl]pyrrolidine-2-carboxamide] | – | < 2000 | < 2000 | < 2 | – | – | – |
| C[C@H]1CN(C#N)[C@H]1C(=O)N(c1ccc(S(F)(F)(F)(F)F)cc1)C(C(=O)NC1CCC(F)(F)CC1)c1cncc(F)c1 (single isomer, unassigned) [1210 Isomer 2] | – | – | < 2000 | – | < 2 | < 2000 | – |
| CC(C(=O)NC1CCC(F)(F)CC1)(c1cccnc1)N(C(=O)[C@H]1C[C@@](C)(O)CN1C#N)c1ccc(S(F)(F)(F)(F)F)cc1 (single isomer, unassigned) [Compound 1077 Isomer 1] | – | < 2000 | 10000 to 30000 | 2 to 10 | – | – | – |
| CO[C@@H]1C[C@H](C(=O)N(c2ccc(S(F)(F)(F)(F)F)cc2)C(C)(C(=O)NC2CCC(F)(F)CC2)c2cnccn2)N(C#N)C1 (single isomer, unassigned) [1299 Isomer 2] | – | – | < 2000 | – | < 2 | < 2000 | – |
| N#CN1C[C@@H]2C[C@@H]2[C@@H]1C(=O)N(c1ccc(S(F)(F)(F)(F)F)cc1)C(C(=O)NC1CCC(F)(F)CC1)c1cncc(F)c1 (single isomer, unassigned) [1096 Isomer 2] | – | – | < 2000 | – | < 2 | < 2000 | – |
| CO[C@@H]1C[C@H](C(=O)N(c2ccc(S(F)(F)(F)(F)F)cc2)C(C(=O)Nc2ccc3c(c2)OCCO3)c2cccnc2)N(C#N)C1 (single isomer, unassigned) [1170 Isomer 2] | – | < 2000 | < 2000 | – | < 2 | – | – |
| N#CN1CC(F)(F)C[C@@H]1C(=O)N(c1ccc(S(F)(F)(F)(F)F)cc1)C(C(=O)NC1CCC(F)(F)CC1)c1cccnc1 (single isomer, unassigned) [1087 Isomer 2] | – | – | 2000 to 10000 | – | > 30 | < 2000 | – |
| CO[C@@H]1C[C@H](C(=O)N(c2ccc(S(F)(F)(F)(F)F)cc2)C(C(=O)NC2CCC(F)(F)CC2)c2cncc(F)c2)N(C#N)C1 (single isomer, unassigned) [1265 Isomer 2] | – | – | < 2000 | – | < 2 | < 2000 | – |
| CC(C)(C)c1ccc(N(C(=O)[C@H]2CCCN2C#N)C(C(=O)N2CCOCC2)c2cccnc2)cc1 (single isomer, unassigned) [Compound 959 Isomer 2] | – | < 2000 | 2000 to 10000 | – | – | – | 2 to 10 |
| CN1CN(C(=O)C(c2cccnc2)N(C(=O)[C@H]2CCCN2C#N)c2ccc(C(C)(C)C)cc2)CC1=O (stereo partly drawn) [Compound 962, (2R)—N-(4-(tert-butyl)phenyl)-1-cyano-N-(2-(3-methyl-4-oxoimidazolidin-1-yl)-2-oxo-1-(pyridin-3-yl)ethyl)pyrrolidine-2-carboxamide] | – | 2000 to 10000 | 10000 to 30000 | 10 to 30 | – | – | – |
| CC(C)(C)c1ccc(N(C(=O)[C@H]2C[C@@H](O)CN2C#N)C(C(=O)NC2CCCCC2)c2cncc(Cl)c2)cc1 (single isomer, unassigned) [675 Isomer 2] | – | – | 2000 to 10000 | – | 2 to 10 | < 2000 | – |
